Source: PubChem BioAssay (NCI)
Several values for one entry are separate records, joined by “and”; a condition that tells them apart may be missing. Identical values can stand only once.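 Cultured in 96-well plates, cells were exposed to test compound for 48 hours across five concentrations. At the GI50, growth is halved. TGI denotes the concentration required for complete inhibition of growth.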

Legend:
Assay in all cases: growth of human tumour cells (NCI), 48 h
DU-145 prostate = test system: DU-145 prostate
NCI-H226 lung = test system: NCI-H226 lung
NCI-H522 lung = test system: NCI-H522 lung
OVCAR-8 ovarian = test system: OVCAR-8 ovarian
IGROV1 ovarian = test system: IGROV1 ovarian
EKVX NSCLC = test system: EKVX NSCLC
SK-MEL-28 melanoma = test system: SK-MEL-28 melanoma
MOLT-4 leukemia = test system: MOLT-4 leukemia
M14 melanoma = test system: M14 melanoma
RXF 393 renal = test system: RXF 393 renal

| Compound | GI50 (DU-145 prostate) | TGI (DU-145 prostate) | GI50 (NCI-H226 lung) | TGI (NCI-H226 lung) | GI50 (NCI-H522 lung) | TGI (NCI-H522 lung) | GI50 (OVCAR-8 ovarian) | TGI (OVCAR-8 ovarian) | GI50 (IGROV1 ovarian) | TGI (IGROV1 ovarian) | GI50 (EKVX NSCLC) | TGI (EKVX NSCLC) | GI50 (SK-MEL-28 melanoma) | TGI (SK-MEL-28 melanoma) | GI50 (MOLT-4 leukemia) | TGI (MOLT-4 leukemia) | GI50 (M14 melanoma) | TGI (M14 melanoma) | GI50 (RXF 393 renal) | TGI (RXF 393 renal) |
| --- | --- | --- | --- | --- | --- | --- | --- | --- | --- | --- | --- | --- | --- | --- | --- | --- | --- | --- | --- | --- |
| CC(CN)[C@@H]1CC[C@]2(CO)CC[C@]3(C)[C@H](CC[C@@H]4[C@@]5(C)CCC(NCCO)C(C)(C)[C@@H]5CC[C@]43C)[C@@H]12 (stereo partly specified) | 2.34 µM | 5.32 µM | 3.94 µM | 17.5 µM | 1.67 µM | 3.27 µM | 1.69 µM | 3.28 µM | 4.79 µM | 19.2 µM | 2.1 µM | 5.01 µM | 1.87 µM | 3.43 µM | 1.56 µM | 4.28 µM | 1.92 µM | 3.68 µM | 1.51 µM | 2.97 µM |
| Nc1nc2ccc([C@@H]3Nc4ccc5[nH]ncc5c4[C@H]4[C@H]5CCC(C5)[C@H]43)cc2s1 | 1.63 µM | 5.78 µM | 1.91 µM | 5.54 µM | 1.38 µM | 3.4 µM | 2.35 µM | 16.7 µM | 1 µM | 9.84 µM | 1.47 µM | 4.92 µM | 1.36 µM | 4.29 µM | 0.632 µM | 3.05 µM | 0.654 µM | 2.62 µM | 1.47 µM | 7.56 µM |
| COC(=O)c1ccc(=O)c2nc3/c(=C/O)c(O)cc(=O)c3[nH]c12 | – | 16.5 µM and 17.6 µM | 0.726 µM | 12.2 µM and 12.8 µM | 0.389 µM | 31 µM and 18.2 µM | 0.364 µM | 2.95 µM and 24.9 µM | 0.469 µM | 3.31 µM and 17.5 µM | 0.557 µM | 8.52 µM and 14.2 µM | 4.17 µM | 19.8 µM and 21.1 µM | 0.562 µM | 12.1 µM and > 60.8 µM | 1.07 µM | 24.9 µM and 24.5 µM | 0.637 µM | 43.3 µM and 17.1 µM |
| Cn1ccc(=Nc2ccc(NC(=O)c3ccc(N=c4ccn(C)c5ccc([N+](=O)[O-])cc45)cc3)cc2)cc1 | 4.43 µM | > 100 µM | 74.3 µM | > 100 µM | 6.88 µM | > 100 µM | > 100 µM | > 100 µM | 11.2 µM | > 100 µM | 55.1 µM | > 100 µM | 22.9 µM | 92.3 µM | > 100 µM | > 100 µM | > 100 µM | > 100 µM | 21.4 µM | 44.6 µM |
| O=c1cccc(C#Cc2ccccc2)o1 | 7.74 µM | > 68.6 µM | 13.2 µM | > 36.3 µM | 4.06 µM | > 40.4 µM | > 22.8 µM | > 100 µM | 9.58 µM | > 87.3 µM | 5.21 µM | 32.1 µM | 15 µM | 40.2 µM | 2.77 µM | – | 5.9 µM | > 22.8 µM | 6.27 µM | 61.6 µM |
| COc1ccc(-c2cnc(-c3ccc(F)cc3)[nH]2)cc1 | 2.59 µM | 7.59 µM | 11 µM | > 62.3 µM | 20.5 µM | > 56.1 µM | 7.85 µM | 21.1 µM | 6.58 µM | 12.7 µM | 5.9 µM | 18.5 µM | 3.69 µM | 8.5 µM | 10.5 µM | 49.6 µM | 5.99 µM | 14.5 µM | 2.2 µM | 5.59 µM |
| O=C(Oc1ccc([N+](=O)[O-])cc1)N1CCN(Cc2cccc(Oc3ccccc3)c2)CC1 | > 100 µM | > 100 µM | > 100 µM | > 100 µM | > 50.9 µM | > 100 µM | > 100 µM | > 100 µM | > 100 µM | > 100 µM | 48.6 µM | > 100 µM | > 100 µM | > 100 µM | 38.9 µM | > 100 µM | > 100 µM | > 100 µM | > 100 µM | > 100 µM |
| COc1cc(-c2oc3c(OC)c(OC)cc(O)c3c(=O)c2OC)ccc1O | – | > 50 µM | 3.88 µM and 12.4 µM | 9.68 µM and > 50 µM | – | 31.3 µM and > 50 µM | – | > 50 µM | – | > 100 µM and 35.5 µM | – | > 50 µM | > 100 µM and 20 µM | > 100 µM | – | 31.5 µM | 3 µM and 6.26 µM | > 100 µM | – | > 100 µM |
| COc1cc(NN=C(c2ccc(O)cc2)c2ccc(O)cc2)c([N+](=O)[O-])cc1[N+](=O)[O-] | 12.8 µM | 50.8 µM | 23.6 µM | 71.6 µM | 8.86 µM | 29.9 µM | 4.91 µM | 27.5 µM | 12.7 µM | 32.8 µM | 14.4 µM | 28.3 µM | 15.3 µM | 33.9 µM | 6.52 µM | > 100 µM | 11.4 µM | 24.7 µM | 8.05 µM | 22.9 µM |
| CCOC(=O)/C=C1\SC(=Nc2ccc(C#N)cc2)N(CCN2C(=O)/C(=C/C(=O)OCC)SC2=Nc2ccc(C#N)cc2)C1=O | 3.04 µM | 13.6 µM | 3.53 µM | 14.3 µM | 6.56 µM | 24.3 µM | 3.65 µM | > 63.8 µM | 1.99 µM | 10.7 µM | 5.2 µM | 28.7 µM | 8.86 µM | 27.5 µM | 1.15 µM | > 100 µM | 3.3 µM | 18.2 µM | 2.61 µM | 9.39 µM |
| O=S(=O)(NC(=S)Nc1ccccc1)c1ccc(N2N=C3c4ccccc4CC3C2c2cccs2)cc1 (stereo unspecified) | 17.8 µM | 41.5 µM | 27.2 µM | 55.4 µM | 32.8 µM | > 100 µM | 39 µM | > 100 µM | 65.3 µM | > 100 µM | 19.5 µM | 54.4 µM | 53.8 µM | > 100 µM | 17.5 µM | > 100 µM | 22.7 µM | 46.3 µM | 78.1 µM | > 100 µM |
